Activity calls are given as the source filed them. The rule behind the calls is not given here.

The results in this text go back to ChEMBL document CHEMBL1157351, “Total synthesis and evaluation of C25-benzyloxyepothilone C for tubulin assembly and cytotoxicity against MCF-7 breast cancer cells” (Bioorg Med Chem Lett, 2008).

Assay [1] has as its system MCF7. The experiment in a line: Ratio of ED50 for drug to ED50 for epothilone B against human MCF7 cells. Type of assay: functional.
The nature of assay [2]: Inhibition of microtubule assembly.
The test system of assay [3] is MCF7. The experiment in a line: Cytotoxicity against human MCF7 cells. Format: functional.
Assay [4] can be described thus: Inhibition of microtubule assembly at 100 uM.

Consider `C/C(=C\c1csc(C)n1)[C@@H]1C/C=C\CCC[C@H](COCc2ccccc2)C(O)[C@@H](C)C(=O)C(C)(C)C(O)CC(=O)O1` (some centres undefined), for which the “Ratio ED50” value in the assay with MCF7 [1] stood at 1050. For the same molecule, the midpoint of the response in assay [2], the EC50, lay at 2500 nM. For the same molecule, the Activity with MCF7 [3] amounted to 2.1 µM. Further, the outcome in assay [4] was inactive.
